Reference: the NIST ThermoML archive (doi:10.1016/j.jct.2019.02.011)

Assay: xn = mol fraction of the nth substance listed
Conditions: Liquid, Vibrating tube method

COC(=O)OC [dimethyl carbonate] + CCO
mass density [kg/m3]
Conditions | 100 kPa | 5000 kPa | 10000 kPa | 15000 kPa | 20000 kPa | 25000 kPa | 30000 kPa | 35000 kPa | 40000 kPa
303.15 K, x1 = 0.0252 | – | – | – | – | – | – | – | 817.99 | 821.19
303.15 K, x1 = 0.0506 | – | – | – | – | – | – | – | 827.65 | 830.86
303.15 K, x1 = 0.0757 | – | – | – | – | – | – | – | 836.92 | 840.19
303.15 K, x1 = 0.1003 | – | – | – | – | – | – | – | 845.76 | 849.04
303.15 K, x1 = 0.1508 | – | – | – | – | – | – | – | 863.66 | 867.01
303.15 K, x1 = 0.2 | – | – | – | – | – | – | – | 880.45 | 883.83
303.15 K, x1 = 0.2547 | – | – | – | – | – | – | – | 898.44 | 901.89
303.15 K, x1 = 0.3002 | – | – | – | – | – | – | – | 912.97 | 916.44
303.15 K, x1 = 0.3498 | – | – | – | – | – | – | – | 928.31 | 931.85
303.15 K, x1 = 0.4 | – | – | – | – | – | – | – | 943.37 | 946.93
303.15 K, x1 = 0.449 | – | – | – | – | – | – | – | 957.5 | 961.08
303.15 K, x1 = 0.4996 | – | – | – | – | – | – | – | 971.61 | 975.21
303.15 K, x1 = 0.5507 | – | – | – | – | – | – | – | 985.38 | 989
303.15 K, x1 = 0.6005 | – | – | – | – | – | – | – | 998.28 | 1001.97
303.15 K, x1 = 0.6455 | – | – | – | – | – | – | – | 1009.61 | 1013.31
303.15 K, x1 = 0.6931 | – | – | – | – | – | – | – | 1021.1 | 1024.81
303.15 K, x1 = 0.7502 | – | – | – | – | – | – | – | 1034.38 | 1038.11
303.15 K, x1 = 0.8009 | – | – | – | – | – | – | – | 1045.74 | 1049.49
303.15 K, x1 = 0.8505 | – | – | – | – | – | – | 1052.73 | 1056.47 | 1060.22
303.15 K, x1 = 0.9008 | – | – | – | – | – | – | 1063.26 | 1067 | 1070.77
303.15 K, x1 = 0.9255 | – | – | – | – | – | – | 1068.3 | 1072.05 | 1075.83
303.15 K, x1 = 0.9477 | – | – | – | – | – | – | 1072.75 | 1076.5 | 1080.28
303.15 K, x1 = 0.9735 | – | – | – | – | – | – | 1077.83 | 1081.57 | 1085.37
303.15 K, x1 = 1 | – | – | – | – | – | – | 1082.9 | 1086.6 | 1090.4
308.15 K, x1 = 0.0252 | 785.78 | 790.2 | 794.7 | 798.95 | 803.01 | 806.85 | 810.55 | 814.13 | 817.65
308.15 K, x1 = 0.0506 | 795.01 | 799.48 | 804.03 | 808.34 | 812.45 | 816.29 | 820.04 | 823.67 | 827.2
308.15 K, x1 = 0.0757 | 804.1 | 808.57 | 813.12 | 817.43 | 821.55 | 825.44 | 829.2 | 832.83 | 836.41
308.15 K, x1 = 0.1003 | 812.76 | 817.27 | 821.84 | 826.15 | 830.31 | 834.21 | 837.98 | 841.6 | 845.19
308.15 K, x1 = 0.1508 | 830.19 | 834.75 | 839.38 | 843.74 | 847.91 | 851.87 | 855.69 | 859.36 | 862.96
308.15 K, x1 = 0.2 | 846.57 | 851.18 | 855.82 | 860.24 | 864.46 | 868.48 | 872.26 | 875.98 | 879.58
308.15 K, x1 = 0.2547 | 864.3 | 868.96 | 873.61 | 878.08 | 882.31 | 886.33 | 890.22 | 893.94 | 897.55
308.15 K, x1 = 0.3002 | 878.53 | 883.23 | 887.94 | 892.42 | 896.65 | 900.73 | 904.63 | 908.34 | 911.96
308.15 K, x1 = 0.3498 | 893.6 | 898.3 | 903.03 | 907.51 | 911.79 | 915.88 | 919.79 | 923.55 | 927.17
308.15 K, x1 = 0.4 | 908.35 | 913.1 | 917.89 | 922.37 | 926.66 | 930.75 | 934.72 | 938.43 | 942.06
308.15 K, x1 = 0.449 | 922.34 | 927.13 | 931.93 | 936.46 | 940.76 | 944.91 | 948.88 | 952.59 | 956.23
308.15 K, x1 = 0.4996 | 936.23 | 941.03 | 945.84 | 950.37 | 954.72 | 958.88 | 962.91 | 966.61 | 970.26
308.15 K, x1 = 0.5507 | 949.8 | 954.65 | 959.47 | 964 | 968.36 | 972.52 | 976.56 | 980.26 | 983.92
308.15 K, x1 = 0.6005 | 962.5 | 967.34 | 972.17 | 976.76 | 981.12 | 985.34 | 989.34 | 993.09 | 996.75
308.15 K, x1 = 0.6455 | 973.59 | 978.43 | 983.27 | 987.86 | 992.27 | 996.5 | 1000.55 | 1004.29 | 1007.96
308.15 K, x1 = 0.6931 | 984.98 | 989.86 | 994.71 | 999.31 | 1003.72 | 1007.95 | 1012.02 | 1015.76 | 1019.43
308.15 K, x1 = 0.7502 | 998.06 | 1002.99 | 1007.85 | 1012.45 | 1016.86 | 1021.1 | 1025.17 | 1028.91 | 1032.59
308.15 K, x1 = 0.8009 | 1009.32 | 1014.25 | 1019.12 | 1023.72 | 1028.14 | 1032.39 | 1036.46 | 1040.2 | 1043.88
308.15 K, x1 = 0.8505 | 1019.95 | 1024.88 | 1029.76 | 1034.36 | 1038.78 | 1043.04 | 1047.12 | 1050.86 | 1054.54
308.15 K, x1 = 0.9008 | 1030.34 | 1035.27 | 1040.16 | 1044.76 | 1049.19 | 1053.46 | 1057.58 | 1061.29 | 1064.96
308.15 K, x1 = 0.9255 | 1035.32 | 1040.27 | 1045.13 | 1049.75 | 1054.19 | 1058.45 | 1062.57 | 1066.29 | 1069.95
308.15 K, x1 = 0.9477 | 1039.72 | 1044.68 | 1049.54 | 1054.15 | 1058.61 | 1062.87 | 1066.99 | 1070.7 | 1074.34
308.15 K, x1 = 0.9735 | 1044.8 | 1049.73 | 1054.59 | 1059.21 | 1063.67 | 1067.93 | 1072.03 | 1075.71 | 1079.36
308.15 K, x1 = 1 | 1049.91 | 1054.84 | 1059.69 | 1064.3 | 1068.73 | 1073 | 1077.1 | 1080.78 | 1084.38
